In experiment [1] the target is T1, muscarinic M1 receptor (Bos taurus, UniProt F1N5C5).
T1 construct: Using receptors derived from bovine striatal membranes; from tissue; host or cells: bovine striatal membranes
As to the kind of experiment: muscarinic M1 binding, [3H]-Pirenzepine, bovine striatal membranes. The note with it: read-out: MuscM1 Binding % inhibition (PharmaPrint range).

Experiment [2] has as its system muscarinic receptor for the central nervous system. Kind of experiment: muscarinic receptor for the central nervous system (M1 Central), [3H] QNB, rat cortical membranes. The experiment is classed as binding. The note with it: 10^-4; 100 µM. The procedure:
Fourteen additional bioassays were preformed on either extracts, fractions or reference compounds for this botanical. To measure inhibition of [^3 H] PK11195 to the benzodiazepine receptor (BDZ) a partially purified receptor preparation was made from rat kidney membranes. The final radioactive ligand concentration was 1 nM and non-specific binding was measured using 200 nM cold PK11195. The substances, receptor and ligand were reacted in 50 mM Tris-HCL (pH 7.7) at 0-4° C. for 60 minutes. The reaction was terminated by rapid filtration of the samples through glass fiber filters. […] The inhibition of [^3 H] pinrenzepine to the muscarinic M1 receptor (M1) by the substances was measured using a partially purified receptor from bovine striatal membranes. The final hot ligand concentration was 1 nM and non-specific binding was determined in the presence of 100 nM atropine. […] The reactions were terminated by rapid vacuum filtration of the reaction mixture through glass fiber filters. […] To assay for biological activity for the muscarinic receptor for the central nervous system, receptor was partially purified from rat cortical membranes. […] Non-specific binding was determined in the presence of 100 nM atropine. […] Non-specific binding was determined using 1 mM NMDA. […] Non-specific binding was determined using 100 μM AMPA.

In experiment [3] the test system is Sindbis virus. The note with it: cited from earlier work.

Results on one molecule are retold here after patent publication US6113907A, “Pharmaceutical grade St. John's Wort” (priority 1997, dated 2000).

The structures appear in SMILES notation.

T1 sequence (F1N5C5 1-460): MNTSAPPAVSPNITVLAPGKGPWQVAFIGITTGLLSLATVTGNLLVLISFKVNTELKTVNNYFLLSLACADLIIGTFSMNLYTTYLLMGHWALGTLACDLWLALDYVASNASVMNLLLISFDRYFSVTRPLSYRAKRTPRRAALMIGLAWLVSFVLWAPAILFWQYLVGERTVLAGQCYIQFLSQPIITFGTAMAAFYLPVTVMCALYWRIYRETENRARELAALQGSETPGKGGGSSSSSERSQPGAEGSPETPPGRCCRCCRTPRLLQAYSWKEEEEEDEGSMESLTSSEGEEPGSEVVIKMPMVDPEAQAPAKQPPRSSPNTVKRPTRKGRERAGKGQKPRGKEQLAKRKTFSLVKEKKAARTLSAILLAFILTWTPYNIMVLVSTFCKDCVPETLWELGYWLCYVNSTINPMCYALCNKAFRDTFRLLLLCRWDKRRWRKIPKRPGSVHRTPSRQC

Consider `Cc1cc(O)c2c(=O)c3c(O)cc(O)c4c5c(O)cc(O)c6c(=O)c7c(O)cc(C)c8c1c2c(c34)c(c78)c65` [Hypericin, hypericin], for which the inhibition at 100 µM in experiment [1] is 80 ± 20%. Moreover, in experiment [2], the “M1 Central” value worked out at 55%. Further, the “activity against Sindbis virus” value in experiment [3] was “Activity has also been reported”.
